From patent US20260227412A1, “USE OF IFN-I ACTIVITY AS A BIOMARKER FOR TLR INHIBITOR TREATMENT” (MERCK PATENT GMBH, priority 2022, published 2026)

Tests used:
[1] = test system: TLR7/8 activation in human PBMCs by patient-derived immune complexes; experiment: IFN-α production in healthy donor PBMCs stimulated with patient-derived immune complexes (AlphaLISA); type: cell-based; conditions: PBMCs pre-treated with 1 μM enpatoran for 30 minutes, immune complex 24 hours
Description: Blood sample collection: Blood samples were collected from subjects with lupus nephritis (LN), systemic lupus erythematosus (SLE), dermatomyositis (DM), polymyositis (PM), patients with inclusion body myositis (IBM) and healthy controls (HC). Blood plasma was isolated and frozen. Later, immunoglobulin G (IgG) was purified using protein A resin and the protein concentration determined.
Immune complex formation and peripheral blood mononuclear cell (PBMC) stimulation: To generate necrotic cell lysates, human embryonic kidney 293 cells were suspended at a concentration of 50 x10^6 cells/mL in phosphate buffered saline (PBS; Gibco, Grand Island, NY). The cells were frozen at −80° C. for 10 minutes followed by thawing at 37° C. Four freeze/thaw cycles were performed. The lysate was centrifuged at 400 g for 5 minutes to separate non-lysed cells and the supernatant was collected as necrotic cell lysate.
PBMCs were isolated from leukopacks collected from healthy donors (New York Blood Center, New York, NY) in sodium heparin tubes using Ficoll-Paque Plus (Cytiva Life Sciences, Uppsala, Sweeden). The cells were plated in 96-well U-bottom plates (4 x10^5 cells/well) in RPMI 1640 Medium (Gibco, Grand Island, NY) supplemented with 10% fetal bovine serum (FBS; Corning, Woodland, CA). […] The supernatants were collected and cytokine production was measured by AlphaLISA (PerkinElmer, Waltham, MA).

[2] = test system: patients hospitalized with COVID-19 pneumonia; experiment: Exploratory phase II clinical study of enpatoran in patients hospitalized with COVID-19 pneumonia (NCT04448756), time to recovery; type: in vivo, human
Protocol: An exploratory phase II clinical study in patients hospitalized with COVID-19 pneumonia was conducted to inter alia assess whether the TLR inhibitor enpatoran improves time to recovery (NCT04448756).
Statistical testing was considered exploratory, and results are presented with no adjustment of type I error for multiplicity. Time to recovery was defined as time from Day 1 to first occurrence of WHO 9-point ordinal scale of ≤3 and was estimated via Kaplan-Meier (KM) analysis, presented with two-sided 95% confidence intervals (CI). The effect of each dose level compared with placebo was evaluated using a stratified log-rank test.
Blood was collected directly in PAXgene RNA tubes from patients at baseline prior to treatment for measurement of gene expression. IFN-I activity was measured by DxTerity Diagnostics (Rancho Dominguez, California, USA), using the IFN-1 test, a commercially available chemical ligation-dependent probe amplification and gene expression test with relative quantitative analysis by capillary electrophoresis. Sample testing and analysis was performed as previously described (Kim et al., J Mol Diagn. 2015 March;17 (2): 118-27). The IFN-1 test measures the expression levels of four IFN response genes (HERC5, IFI27, IFIT1 and RSAD2), i.e. the Dx-4 IFN-I signature, relative to the expression levels of three housekeeping normalizer genes (ACTB, GAPDH and TFRC). Normalized expression values of each respective response gene were calculated per the following function: Normalized ExpressionGene i=Log2(HeightGene i)−Mean (Log2 (Normaliser Gene Height)). The IFN-I signature score was calculated by averaging the normalized expression values of the four response genes. The cut-off between high IFN-I signature and low IFN-I signature scores (−0.5), was set to the mean±2 SDs (95th percentile) of IFN-I signature scores from 281 healthy human donors. This cut-off falls within the trough of the observed bimodal distribution of IFN-I signature scores for cohorts of SLE patients.
149 patients received either placebo (n=49), or enpatoran 50 mg (n=54)0r 100 mg (n=46) BID. Mean IFN-I signature scores (50 mg BID-0.84; 100 mg BID-0.74; placebo-0.91) and the proportion of patients with high IFN-I signature scores at baseline (50 mg BID 35%; 100 mg BID 43%; placebo 35%) were reasonably consistent across treatment groups, as reflected by Table 2: […]

[3] = subgroup with high IFN-I signature scores at baseline, 50 mg BID
[4] = subgroup with high IFN-I signature scores at baseline, 100 mg BID

N#Cc1ccc(N2C[C@H](N)C[C@H](C(F)(F)F)C2)c2cccnc12 [enpatoran, 5-[(3R,5S)-3-amino-5-(trifluoromethyl)piperidin-1-yl]quinoline-8-carbonitrile]
IFN-α production [1]: completely inhibited
KM-estimated cumulative recovery rate up to Day 14 [2, 3]: 78.6%
recovery rate at Day 28 [2, 3]: 73.3%
KM-estimated cumulative recovery rate up to Day 14 [2, 4]: 88.2%
recovery rate at Day 28 [2, 4]: 88.2%
recovery rate at Day 28 ([2]; subgroup with low IFN-I signature scores at baseline, 50 mg BID): 100%
recovery rate at Day 28 ([2]; subgroup with low IFN-I signature scores at baseline, 100 mg BID): 91.3%
primary efficacy endpoint of the time to recovery from Day 1 through Day 28 ([2]; unstratified patient populations, enpatoran 50 mg or 100 mg BID vs placebo): not met
recovery rate ([2]; unstratified, Day 1 through Day 28, 50 mg BID): 88.9%
recovery rate ([2]; unstratified, Day 1 through Day 28, 100 mg BID): 91.3%
median time to recovery ([2]; unstratified, range across groups (placebo, 50 mg BID, 100 mg BID)): 3.4 to 3.9 days
